Reference: publication PMC8464850, “Sulfonium Ligands of the α7 nAChR” (Molecules, 2021)

Legend:
α7 nAChR = biological target: T1, α7 nAChR (Homo sapiens, UniProt P36544); test: Inhibition of α7 ACh-evoked responses; assay type: cell-based; conditions: 1 mM ACh without S8, n = 8
T1 construct: expressed in transfected cells; host or cells: Xenopus laevis oocytes (injected RNA)
Description: Figure 4 Effects sulfonium compounds on α7 ACh-evoked net-charge responses. (A) Effects of the sulfonium compounds at 100 µM co-applied with 60 µM relative to responses to 60 µM ACh applied alone. Data are the averages (±SEM) from seven or eight cells under each condition. (B) Effects of select sulfonium compounds at 1 mM co-applied with 60 µM relative to responses to 60 µM ACh applied alone. Data are the averages (±SEM) from seven or eight cells under each condition. Statistical significance was determined by pairwise t-test with p values corrected for multiple comparisons; * p < 0.05, ** p < 0.001.
The sulfonium compounds that were active with TQS but produced little inhibition of ACh response at a concentration of 100 µM were tested as inhibitors of ACh response at a concentration of 1 mM (Figure 4B).
We tested S8 across a range of concentrations for its ability to inhibit 60 µM ACh responses (Figure 5A). Note that we use 60 µM as an ACh control because this concentration gives nearly maximal (93%) net-charge responses, with the time course of the responses roughly following the speed of solution exchange. […] We tested whether inhibition of α7 responses by S8 was surmountable by increasing ACh concentration, consistent with a competitive mechanism of inhibition. However, since α7 responses to concentrations of ACh greater than 60 µM occur more rapidly than solution exchange in the chamber, we first pre-applied 5 µM S8 prior to the co-application of 5 µM S8 with either 60 µM or 1 mM ACh (Figure 5B). The 60 µM net-charge responses were reduced to 28 ± 2% of controls (n = 8) and 60 µM peak currents to 21 ± 3 % controls. The 1 mM net-charge responses were reduced to 56 ± 6 % of those obtained without S8 co-application, although the S8 co-application increased the peak-current amplitudes compared to 60 µM controls from 1.78 ± 0.15 to 3.72 ± 0.81 (n = 8).
Figure 5 Inhibition of α7 ACh-evoked responses by S8. (A) Concentration-response studies of α7 net-charge responses to 60 µM ACh co-applied with increasing concentrations of S8. To confirm the stability of the ACh responses, applications of ACh plus S8 were alternated with applications of ACh alone. Data are the averages of eight cells (±SEM). See text for curve-fit values. (B) Effects of 5 µM S8 on responses to either 60 µM or 1 mM ACh. The traces shown across the top are the averaged raw data from seven cells, each normalized to the peak current of the first ACh control response shown. In order to assure that the S8 was present at 5 µM throughout the ACh-evoked responses, a 30 s pre-application was made of 5 µM S8 alone. The lower traces show averaged responses to 60 µM or 1 mM ACh alone or with the 5 µM S8 pre- and co-application. The details of the data are described in Methods.
Experiments were conducted using OpusXpress 6000A (Molecular Devices, Union City, CA, USA). Both the voltage and current electrodes were filled with 3 M KCl. Oocytes were voltage-clamped at −60 mV at room temperature (24 °C). The oocytes were bath-perfused with Ringer’s solution (115 mM NaCl, 2.5 mM KCl, 1.8 mM CaCl2, 10 mM HEPES, and 1 μM atropine, pH 7.2) at 2 mL/min for α7 receptors, or 4 mL/min for heteromeric nAChR. To evaluate the effects of experimental compounds, responses were compared to control ACh-evoked responses, defined as the average of two initial applications of ACh made before test applications. ACh control concentrations were 60 µM for α7 receptors; 100 µM for α4(3)β2(2) and α3β4 receptors; 30 µM for α4β2α6β2β3 and muscle-type (αβ1εδ) receptors; and 10 µM for α4(3)β2(2) and α4(2)β2(2)α5 receptors.
Solutions were applied from 96-well plates via disposable tips. Drug applications were 12 s in duration, followed by 181 s washout periods for α7 receptors, or 6 s in duration followed by 301 s washout periods for heteromeric nAChR. […]

human α7 receptors = biological target: T2, human α7 receptors (Homo sapiens, UniProt P36544); design: method as in PMID 12183330; conditions: 60 µM ACh; cited from earlier work
T2 construct: expressed in transfected cells; host or cells: Xenopus laevis oocytes (injected RNA)
T2 sequence (P36544 23-502): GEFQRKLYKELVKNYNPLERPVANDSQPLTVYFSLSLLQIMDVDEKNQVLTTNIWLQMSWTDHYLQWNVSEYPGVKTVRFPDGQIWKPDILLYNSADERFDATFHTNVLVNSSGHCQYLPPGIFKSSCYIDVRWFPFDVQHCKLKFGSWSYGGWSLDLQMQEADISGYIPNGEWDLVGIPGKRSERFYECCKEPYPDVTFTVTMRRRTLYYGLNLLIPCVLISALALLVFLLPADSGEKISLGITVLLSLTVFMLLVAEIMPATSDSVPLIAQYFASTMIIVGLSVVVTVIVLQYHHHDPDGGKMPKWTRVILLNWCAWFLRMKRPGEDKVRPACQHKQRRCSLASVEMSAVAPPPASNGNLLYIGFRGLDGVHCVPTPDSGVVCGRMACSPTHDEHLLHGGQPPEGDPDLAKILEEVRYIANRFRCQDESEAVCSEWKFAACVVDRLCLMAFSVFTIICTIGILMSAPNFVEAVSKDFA

[1] = biological target: T3, muscle-type (α1β1εδ) receptors (Mus musculus, UniProt P02716+P04756+P20782); conditions: cited from earlier work
T3 construct: expressed in transfected cells; host or cells: Xenopus laevis oocytes (injected RNA)
T3 sequence (P04756 21-457): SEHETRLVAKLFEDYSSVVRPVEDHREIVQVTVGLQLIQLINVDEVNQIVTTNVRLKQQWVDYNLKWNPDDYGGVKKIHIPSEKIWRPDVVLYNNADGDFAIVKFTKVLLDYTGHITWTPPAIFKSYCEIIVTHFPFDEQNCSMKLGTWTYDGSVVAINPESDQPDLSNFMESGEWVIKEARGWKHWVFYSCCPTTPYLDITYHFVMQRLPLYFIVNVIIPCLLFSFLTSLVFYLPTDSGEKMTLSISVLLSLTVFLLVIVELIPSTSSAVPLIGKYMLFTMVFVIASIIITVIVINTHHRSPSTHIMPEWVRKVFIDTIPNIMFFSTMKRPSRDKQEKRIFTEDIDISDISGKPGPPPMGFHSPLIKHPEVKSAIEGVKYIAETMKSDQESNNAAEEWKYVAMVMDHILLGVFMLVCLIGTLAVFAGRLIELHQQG
T3 sequence (P09690 24-501 partner): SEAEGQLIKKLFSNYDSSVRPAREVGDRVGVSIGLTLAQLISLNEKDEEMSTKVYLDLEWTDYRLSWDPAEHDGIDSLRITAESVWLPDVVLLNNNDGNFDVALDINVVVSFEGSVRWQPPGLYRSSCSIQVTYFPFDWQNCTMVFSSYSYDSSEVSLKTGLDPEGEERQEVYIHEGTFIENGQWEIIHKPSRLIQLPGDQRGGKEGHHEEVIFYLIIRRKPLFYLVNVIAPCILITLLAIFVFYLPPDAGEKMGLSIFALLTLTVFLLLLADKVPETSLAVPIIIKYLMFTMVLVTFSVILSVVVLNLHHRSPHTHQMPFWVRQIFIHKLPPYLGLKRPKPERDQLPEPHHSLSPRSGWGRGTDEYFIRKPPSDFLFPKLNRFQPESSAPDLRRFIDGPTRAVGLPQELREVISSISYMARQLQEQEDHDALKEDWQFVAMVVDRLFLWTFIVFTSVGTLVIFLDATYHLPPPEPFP
T3 sequence (P20782 21-493): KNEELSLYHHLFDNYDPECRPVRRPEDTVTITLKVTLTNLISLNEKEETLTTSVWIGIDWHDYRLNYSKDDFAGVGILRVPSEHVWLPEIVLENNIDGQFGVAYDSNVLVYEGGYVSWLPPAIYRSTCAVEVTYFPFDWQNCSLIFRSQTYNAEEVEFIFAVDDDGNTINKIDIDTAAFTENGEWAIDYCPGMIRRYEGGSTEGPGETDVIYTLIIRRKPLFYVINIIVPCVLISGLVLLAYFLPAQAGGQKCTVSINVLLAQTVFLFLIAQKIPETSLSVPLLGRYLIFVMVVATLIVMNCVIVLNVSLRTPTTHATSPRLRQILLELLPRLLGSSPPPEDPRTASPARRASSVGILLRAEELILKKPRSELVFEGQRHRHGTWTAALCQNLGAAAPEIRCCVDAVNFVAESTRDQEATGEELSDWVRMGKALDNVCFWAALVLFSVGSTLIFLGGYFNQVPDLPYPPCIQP
T3 sequence (P02716 25-520): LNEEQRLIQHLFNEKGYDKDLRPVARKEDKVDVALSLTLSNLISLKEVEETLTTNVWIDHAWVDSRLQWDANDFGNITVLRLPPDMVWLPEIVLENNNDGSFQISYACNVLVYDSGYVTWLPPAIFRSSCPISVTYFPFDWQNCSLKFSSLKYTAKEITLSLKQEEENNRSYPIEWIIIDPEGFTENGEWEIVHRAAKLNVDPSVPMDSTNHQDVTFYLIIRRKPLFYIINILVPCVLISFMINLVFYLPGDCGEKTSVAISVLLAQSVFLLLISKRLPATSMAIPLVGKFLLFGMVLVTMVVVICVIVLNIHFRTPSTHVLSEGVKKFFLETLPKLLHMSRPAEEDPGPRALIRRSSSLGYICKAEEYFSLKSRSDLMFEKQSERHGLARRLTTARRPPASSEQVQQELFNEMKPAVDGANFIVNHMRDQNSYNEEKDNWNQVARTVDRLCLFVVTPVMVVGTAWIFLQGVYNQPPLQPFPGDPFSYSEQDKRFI

T1 sequence (P36544 23-502): as the sequence (P36544 23-502) above

SMILES	1 mM ACh peak-current amplitudes compared to 60 µM controls (α7 nAChR)	net-charge response as share of maximal (human α7 receptors) [%]	activation of muscle-type receptors [1]
CC(=O)OCC[N+](C)(C)C [ACh, Acetylcholine chloride, reference compound]	1.78 ± 0.15	93	
C[N+](C)(C)C [TMA, tetramethylammonium ion]			not an effective activator
